This note sets out measurements from patent publication US8829011B2 (Janssen Pharmaceutica NV, priority 2008, dated 2014).

The target of one test is T1, rat 5-HT7a receptor (Rattus norvegicus, UniProt P32305).
T1 construct: expressed in transfected cells; host or cells: HEK-293
As to the kind of experiment: Affinity for 5-HT7 receptor binding sites (competition radioligand binding, [3H]5-CT). The conditions noted are these: membranes of HEK-293 cells with rat 5-HT7a; 1 nM [3H]5-CT; * = tested as hydrochloride salt. As for the experimental part:
(§1) Stock drug solutions (10 mM) were prepared in DMSO (the final assay concentration of DMSO not exceeding 0.4%). Drug dilutions were prepared in assay buffer.
(§2) Sigmoidal inhibition curves were generated and fitted by nonlinear regression analysis (GraphPad Prism).
1. Affinity for 5-HT7 Receptor Binding Sites
The affinity of the compounds described in this invention for the 5-HT7 receptor binding site was evaluated by single competition radioligand binding assay. The assay was performed on membranes prepared from HEK-293 cells that had been subjected to stable transfection with the rat 5-HT7a receptor (GB: NM022938). Cells were scraped from the culture plates, suspended in Tris-HCl 50 mM pH 7.5 and collected through centrifugation (1000 rpm for 5 min). The cell pellets were homogenized (Polytron, 15 s, setting 5) in 50 mM Tris-HCl (pH 7.5), 5 mM EDTA. Following centrifugation (15,000 rpm for 25 min), membranes (135 μg protein/mL) were resuspended in the same buffer and incubated for 60 min at RT with 1 nM [^3H]5-CT in the presence of increasing concentration of test compounds. Nonspecific binding was defined in the presence of 10 μM 5-HT. Incubation was stopped by rapid filtration using the cell harvester (Packard). Radioactivity was counted in a TopCount-NXT (Packard). Experiments were conducted in triplicate.

The target of test [1] is T2, human recombinant 5-HT2C receptor (Homo sapiens, UniProt P28335).
T2 construct: expressed in transfected cells; host or cells: CHO
T2 sequence (P28335 33-458): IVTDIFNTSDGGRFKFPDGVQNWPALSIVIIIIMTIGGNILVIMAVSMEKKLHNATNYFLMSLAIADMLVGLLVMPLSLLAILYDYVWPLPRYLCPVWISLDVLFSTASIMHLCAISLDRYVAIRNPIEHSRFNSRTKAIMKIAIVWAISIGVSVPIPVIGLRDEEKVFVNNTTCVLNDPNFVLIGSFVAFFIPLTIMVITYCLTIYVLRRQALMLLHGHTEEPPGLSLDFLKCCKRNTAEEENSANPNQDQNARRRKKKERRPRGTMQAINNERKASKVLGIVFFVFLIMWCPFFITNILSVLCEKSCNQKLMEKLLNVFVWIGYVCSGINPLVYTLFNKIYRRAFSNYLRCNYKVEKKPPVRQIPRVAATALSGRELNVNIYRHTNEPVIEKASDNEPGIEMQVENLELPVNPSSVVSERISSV
As to the kind of experiment: Affinity for 5-HT2C receptor binding sites (competitive radioligand binding, [3H]mesulergine). Conditions: membranes of CHO with h5-HT2C, * = tested as hydrochloride salt. As for the experimental part: as §1, §2
(§3) 2. Affinity for 5HT2 Receptor Binding Sites
(§4) Receptor binding was performed using the human recombinant 5-HT2A (GB: X57830), 5-HT2B (GB: Z36748) and 5-HT2C (GB: M81778) receptors. The affinity of the compounds for the 3 different human 5-HT2 receptor subtypes was evaluated by competitive radioligand binding assays using [^3H]ketanserin (h5-HT2A) or [^3H]mesulergine (h5-HT2B and h5-HT2C). The assays were performed on membranes prepared from NIH3T3 stably transfected with h5-HT2A or CHO stably transfected with h5-HT2B and h5-HT2C.

For test [2], the target named is T3, human recombinant 5-HT2A receptor (Homo sapiens, UniProt P28223).
T3 construct: expressed in transfected cells; host or cells: NIH3T3
Briefly: Affinity for 5-HT2A receptor binding sites (competitive radioligand binding, [3H]ketanserin). The conditions noted are these: membranes of NIH3T3 with h5-HT2A, * = tested as hydrochloride salt. As for the experimental part:
as §1, §2, §3, §4

The target in test [3] is T4, human recombinant 5-HT2B receptor (Homo sapiens, UniProt P41595).
T4 construct: expressed in transfected cells; host or cells: CHO
Briefly: Affinity for 5-HT2B receptor binding sites (competitive radioligand binding, [3H]mesulergine). The conditions noted are these: membranes of CHO with h5-HT2B, * = tested as hydrochloride salt. On the procedure: as §1, §2, §3, §4

For test [4], the target named is T5, human recombinant 5-HT6 receptor (Homo sapiens, UniProt P50406).
T5 construct: expressed in transfected cells; host or cells: HEK-293
As to the kind of experiment: Affinity for 5-HT6 receptor binding sites (competitive radioligand binding, [3H]LSD). The conditions noted are these: membranes of HEK-293 with h5-HT6, * = tested as hydrochloride salt. As for the experimental part:
as §1, §2
3. Affinity for 5-HT6 Receptor Binding Sites
Receptor binding was performed using the human recombinant 5-HT6 (GB: BC0794995) receptor. The affinity of the compounds for the human 5-HT6 receptor was evaluated by competitive radioligand binding assays using [^3H]LSD. The assays were performed on membranes prepared from HEK-293 stably transfected with h5-HT6. Non-specific binding was estimated in the presence of 1 μM clozapine.

Where a name gives a salt, the structure may show the parent alone.

T1 sequence (P32305 whole entry): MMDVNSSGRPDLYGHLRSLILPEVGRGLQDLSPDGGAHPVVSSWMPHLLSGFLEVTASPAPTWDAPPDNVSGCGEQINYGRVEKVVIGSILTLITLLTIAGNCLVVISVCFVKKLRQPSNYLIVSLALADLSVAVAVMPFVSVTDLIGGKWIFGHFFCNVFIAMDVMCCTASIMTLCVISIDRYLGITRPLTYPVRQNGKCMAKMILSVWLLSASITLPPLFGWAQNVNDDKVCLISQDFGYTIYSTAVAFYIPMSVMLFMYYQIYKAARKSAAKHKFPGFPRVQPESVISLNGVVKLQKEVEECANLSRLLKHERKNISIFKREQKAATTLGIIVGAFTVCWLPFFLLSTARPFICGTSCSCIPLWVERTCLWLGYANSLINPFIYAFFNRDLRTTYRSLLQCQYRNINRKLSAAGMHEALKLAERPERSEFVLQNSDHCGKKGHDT
T3 sequence (P28223 whole entry): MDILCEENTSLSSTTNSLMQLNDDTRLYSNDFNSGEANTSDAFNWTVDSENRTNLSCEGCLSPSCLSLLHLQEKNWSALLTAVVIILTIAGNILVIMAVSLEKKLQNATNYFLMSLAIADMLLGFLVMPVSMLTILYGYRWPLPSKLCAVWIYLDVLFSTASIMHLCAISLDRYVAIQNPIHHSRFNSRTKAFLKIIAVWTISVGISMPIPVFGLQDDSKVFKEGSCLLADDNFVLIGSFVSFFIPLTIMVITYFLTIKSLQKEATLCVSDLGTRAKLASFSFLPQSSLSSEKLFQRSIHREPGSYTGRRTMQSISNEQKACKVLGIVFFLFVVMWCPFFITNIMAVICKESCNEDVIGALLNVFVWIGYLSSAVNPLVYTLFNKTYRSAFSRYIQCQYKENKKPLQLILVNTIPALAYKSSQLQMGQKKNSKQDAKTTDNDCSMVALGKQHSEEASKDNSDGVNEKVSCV
T4 sequence (P41595 whole entry): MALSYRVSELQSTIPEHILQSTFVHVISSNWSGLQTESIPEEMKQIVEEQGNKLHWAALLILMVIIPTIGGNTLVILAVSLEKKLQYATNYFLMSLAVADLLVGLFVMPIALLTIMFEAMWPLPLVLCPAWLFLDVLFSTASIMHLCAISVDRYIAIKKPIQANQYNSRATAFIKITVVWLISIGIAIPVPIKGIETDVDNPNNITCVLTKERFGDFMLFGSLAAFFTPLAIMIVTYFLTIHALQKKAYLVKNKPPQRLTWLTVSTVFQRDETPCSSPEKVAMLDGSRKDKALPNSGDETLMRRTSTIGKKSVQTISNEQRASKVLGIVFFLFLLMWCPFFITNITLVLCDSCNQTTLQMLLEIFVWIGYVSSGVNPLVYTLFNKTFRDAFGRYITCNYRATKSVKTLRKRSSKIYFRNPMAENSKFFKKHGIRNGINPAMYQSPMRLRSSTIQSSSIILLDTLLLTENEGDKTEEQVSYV
T5 sequence (P50406 whole entry): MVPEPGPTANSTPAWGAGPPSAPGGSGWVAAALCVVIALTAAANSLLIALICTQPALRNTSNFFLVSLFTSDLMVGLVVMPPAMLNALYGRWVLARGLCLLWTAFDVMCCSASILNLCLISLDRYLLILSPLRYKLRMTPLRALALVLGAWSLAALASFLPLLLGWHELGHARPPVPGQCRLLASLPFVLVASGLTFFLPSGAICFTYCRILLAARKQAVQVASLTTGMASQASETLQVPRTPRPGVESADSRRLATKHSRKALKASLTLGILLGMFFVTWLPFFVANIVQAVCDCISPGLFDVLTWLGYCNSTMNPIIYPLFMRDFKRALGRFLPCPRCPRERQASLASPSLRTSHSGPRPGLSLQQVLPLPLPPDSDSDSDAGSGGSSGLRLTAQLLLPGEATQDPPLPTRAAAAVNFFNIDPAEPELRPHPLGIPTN

One may read the Ki as a dissociation constant, usually derived from enzyme kinetics or from competition with a known ligand. Consider `CCN(CC)c1nc2c(c(-c3ccc(C#N)cc3)n1)CNCCC2` [Example 18, 4-(2-Diethylamino-6,7,8,9-tetrahydro-5H-1,3,6-triaza-benzocyclohepten-4-yl)-benzonitrile], for which the Ki on rat 5-HT7a receptor was over 10 µM.
For `Cc1ccc(-c2nc(N3CCCC3)nc3c2CNCC3)cc1` [Example 47, 2-Pyrrolidin-1-yl-4-p-tolyl-5,6,7,8-tetrahydro-pyrido[4,3-d]pyrimidine], the Ki is 1600 nM in test [1], 120 nM in test [2], 500 nM in test [3] and over 10 µM at rat 5-HT7a receptor.
For `Clc1ccc(-c2nc(NCc3ccccc3)nc3c2CCNCC3)cc1` [Example 56, Benzyl-[4-(4-chloro-phenyl)-6,7,8,9-tetrahydro-5H-pyrimido[4,5-d]azepin-2-yl]-amine] the same measures were 40 nM, 1.4 nM, 45 nM and 9 µM.
For `CCN(C)c1nc2c(c(-c3ccc(F)cc3)n1)CNCC2` [Example 44, Ethyl-[4-(4-fluoro-phenyl)-5,6,7,8-tetrahydro-pyrido[4,3-d]pyrimidin-2-yl]-methyl-amine hydrochloride] the same measures were 300 nM, 9.5 nM, 180 nM and 2 µM.
Taken in the same sequence, the figures for `CCN(CC)c1nc2c(c(-c3ccc(C)cc3)n1)CNCCC2` [Example 16, Diethyl-(4-p-tolyl-6,7,8,9-tetrahydro-5H-1,3,6-triaza-benzocyclohepten-2-yl)-amine] were 630 nM, 50 nM, 320 nM and 0.5 µM.
On to `CCN(CC)c1nc2c(c(-c3ccc(OC)cc3)n1)CNCCC2` [Example 17, Diethyl-[4-(4-methoxy-phenyl)-6,7,8,9-tetrahydro-5H-1,3,6-triaza-benzocyclohepten-2-yl]-amine], for which the Ki in test [1] was 2500 nM; in test [2], 900 nM; in test [3] it was 630 nM; on rat 5-HT7a receptor it was over 10 µM.
Consider `Cc1ccc(-c2nc(N3CCCCCC3)nc3c2CCN(Cc2ccccc2)C3)cc1` [Example 33, 2-Azepan-1-yl-7-benzyl-4-p-tolyl-5,6,7,8-tetrahydro-pyrido[3,4-d]pyrimidine], for which the Ki was 3200 nM in test [1], 540 nM in test [2], 800 nM in test [3] and over 10 µM on rat 5-HT7a receptor.
For the compound `CCN(CC)c1nc2c(c(-c3ccc(F)cc3)n1)CNCCC2` [Example 15, Diethyl-[4-(4-fluoro-phenyl)-6,7,8,9-tetrahydro-5H-1,3,6-triaza-benzocyclohepten-2-yl]-amine], the Ki at rat 5-HT7a receptor was over 10 µM.
Take `CC1CCCN1c1nc2c(c(-c3ccc(Cl)cc3)n1)CCNCC2` (stereo not drawn) [Example 54, 4-(4-Chloro-phenyl)-2-(2-methyl-pyrrolidin-1-yl)-6,7,8,9-tetrahydro-5H-pyrimido[4,5-d]azepine]: the Ki in test [1] is 89 nM; in test [2], 30 nM; in test [3] it was 5 nM; on rat 5-HT7a receptor, 0.37 µM.
As to `N#Cc1ccc(-c2nc(N3CCCCC3)nc3c2CNCCC3)cc1` [Example 22, 4-(2-Piperidin-1-yl-6,7,8,9-tetrahydro-5H-1,3,6-triaza-benzocyclohepten-4-yl)-benzonitrile hydrochloride], the Ki in test [1] is over 10000 nM; in test [2] it was over 10000 nM; in test [3], 2510 nM; on rat 5-HT7a receptor, over 10 µM.
Turning to `Fc1ccc(-c2nc(N3CCCCCC3)nc3c2CCNC3)cc1` [Example 32, 2-Azepan-1-yl-4-(4-fluoro-phenyl)-5,6,7,8-tetrahydro-pyrido[3,4-d]pyrimidine], the inhibitory constant (Ki) in test [1] stood at 110 nM; in test [2] it was 9 nM; in test [3], 30 nM; on rat 5-HT7a receptor it was 0.27 µM.
For `CCN(CC)c1nc2c(c(-c3ccc(C)cc3)n1)CCN(Cc1ccccc1)C2` [Example 25, (7-Benzyl-4-p-tolyl-5,6,7,8-tetrahydro-pyrido[3,4-d]pyrimidin-2-yl)-diethyl-amine] the same measures were over 10000 nM, 190 nM, 620 nM and over 10 µM.
On to `Fc1ccc(-c2nc(N3CCCC3)nc3c2CNCC3)cc1` [Example 41, 4-(4-Fluoro-phenyl)-2-pyrrolidin-1-yl-5,6,7,8-tetrahydro-pyrido[4,3-d]pyrimidine hydrochloride], for which the Ki is 940 nM in test [1], 25 nM in test [2], 750 nM in test [3] and over 10 µM at rat 5-HT7a receptor.
For `COc1ccc(-c2nc(N3CCCCC3)nc3c2CNCCC3)cc1` [Example 21, 4-(4-Methoxy-phenyl)-2-piperidin-1-yl-6,7,8,9-tetrahydro-5H-1,3,6-triaza-benzocycloheptene hydrochloride], the Ki on rat 5-HT7a receptor is over 10 µM.
In the case of `Cc1ccc(-c2nc(N3CCCCCC3)nc3c2CCNC3)cc1` [Example 34, 2-Azepan-1-yl-4-p-tolyl-5,6,7,8-tetrahydro-pyrido[3,4-d]pyrimidine], the Ki in test [1] was found to be 270 nM; in test [2], 18 nM; in test [3], 40 nM; on rat 5-HT7a receptor, 0.09 µM.
Turning to `COc1ccc(-c2nc(N3CCCCCC3)nc3c2CCNC3)cc1` [Example 36, 2-Azepan-1-yl-4-(4-methoxy-phenyl)-5,6,7,8-tetrahydro-pyrido[3,4-d]pyrimidine], the inhibitory constant (Ki) in test [1] was determined as 320 nM; in test [2], 160 nM; in test [3], 100 nM; on rat 5-HT7a receptor, 0.21 µM.
Taken in the same sequence, the figures for `CCN(CC)c1nc2c(c(-c3ccc(Cl)cc3)n1)CNCC2` [Example 46, [4-(4-Chloro-phenyl)-5,6,7,8-tetrahydro-pyrido[4,3-d]pyrimidin-2-yl]-diethyl-amine hydrochloride] were 250 nM, 30 nM, 200 nM and 0.1 µM.
In the case of `CCN(CC)c1nc2c(c(-c3ccc(C#N)cc3)n1)CCN(Cc1ccccc1)C2` [Example 29, 4-(7-Benzyl-2-diethylamino-5,6,7,8-tetrahydro-pyrido[3,4-d]pyrimidin-4-yl)-benzonitrile], the Ki was over 10000 nM in test [1], 650 nM in test [2], 1100 nM in test [3] and over 10 µM at rat 5-HT7a receptor.
On to `Fc1ccc(-c2nc(N3CCCCC3)nc3c2CNCCC3)cc1` [Example 20, 4-(4-Fluoro-phenyl)-2-piperidin-1-yl-6,7,8,9-tetrahydro-5H-1,3,6-triaza-benzocycloheptene hydrochloride], for which the inhibitory constant (Ki) in test [1] is 6310 nM; in test [2], 300 nM; in test [3], 790 nM; on rat 5-HT7a receptor, over 10 µM.
Taken in the same sequence, the figures for `Cc1ccc(-c2nc(N3CCCCC3)nc3c2CNCCC3)cc1` [Example 19, 2-Piperidin-1-yl-4-p-tolyl-6,7,8,9-tetrahydro-5H-1,3,6-triaza-benzocycloheptene] were 3160 nM, 1500 nM, 1000 nM and over 10 µM.
Regarding `COc1ccc(-c2nc(N3CCCC3C)nc3c2CCNCC3)cc1Cl` (stereo not drawn) [Example 66, 4-(3-chloro-4-methoxyphenyl)-6,7,8,9-tetrahydro-2-(2-methyl-1-pyrrolidinyl)-5H-pyrimido[4,5-d]azepine], the Ki turned out to be 46 nM in test [1], 47 nM in test [4], 61 nM in test [2] and 8 nM in test [3].
